The values that follow come from patent US5843402A, “Synthetic peptides for use in thrombus detection” (Antisoma Research Limited, priority 1989, dated 1998).

The subject of assay [1] is ADP (1 × 10^-5 M)-induced platelet aggregation. The experiment in a line: Inhibition of ADP-induced platelet aggregation. It counts as cell-based. The method, then: The effect of these peptides on ADP-induced platelet aggregation was determined and compared with peptide RGDS which is known to inhibit platelet aggregation.
Another assay concerns clotted blood. Description: Binding of radiolabelled peptides to clotted blood. The method, then: (§1) The results (Table 2) indicate that all four peptides can bind platelets in ADP stimulated blood and that higher incorporation can be achieved In clotted blood.
(§2) Iodogen tubes were prepared by dissolving Iodogen (1, 3, 4, 6-Tetrachloro-3α, 6α-diphenylglycouril) in chloroform at a concentration of 1 mg.ml-^1. Aliquots of 50 μl (50 μg Iodogen) were dispensed into polypropylene cryo-tubes and the chloroform evaporated to dryness. These tubes were then stored dessicated at -20° C. until required.
(§3) Prior to radiolabelling the peptides were dissolved in phosphate buffered saline (PBS) at a concentration of 50 mg.ml-^1. RGDSYC and […] were first dissolved in a small volume of dimethyl sulphoxide (DMSO) such that the final concentration of DMSO in PBS was 1% v/v.
(§4) Iodogen tubes were equilibrated to room temperature before the addition of 200 μl peptide solution and 1-10 μl of ^123 I (in aqueous solution). The reaction mixture was then left for 15min at room temperature with occasional shaking. Following the incubation period the reaction mixture was removed and passed through a Sephadex G10 column which had been equilibrated with PBS. The column, which separates radiolabelled peptide from free iodine was eluted with PBS and 2 ml fractions collected. Radioactivity in the fractions was measured and the eluted peptides, represented by the first radioactive peak from the column, collected and stored at 4° C. until required.

Assay [2] has as its system activated platelets in whole blood (ADP stimulated blood). Description: Binding of radiolabelled peptides to ADP stimulated blood. The method, then: as §1, §2, §3, §4

With RGDSCRGDSY, the figures for the “percentage inhibition of ADP-induced platelet aggregation” value in assay [1] (peptide 0.1 mM), in assay [1] (peptide 0.2 mM) and in assay [1] (peptide 0.4 mM) were 17%, 57% and 79%, respectively. Moreover, the bound peptide in the assay with clotted blood (1 ng radiolabelled peptide) was found to be 0.28 ng; with clotted blood (10 ng radiolabelled peptide) it was 2.64 ng; with clotted blood (100 ng radiolabelled peptide) it was 29.33 ng; in assay [2] (1 ng radiolabelled peptide), 0.01 ng; in assay [2] (10 ng radiolabelled peptide) it was 0.85 ng; in assay [2] (100 ng radiolabelled peptide), 9.07 ng.
